Patent US10494412B2, “Peptides” (HOX THERAPEUTICS LIMITED, priority 2015, dated 2019)
Where two headings read alike, the source gives them in different places. Where no end group is shown, it is not given here.

Experiments:
[1] = system: PC3 cells; assay: cells; settings: Homo sapiens, PC-3, 2 h, read-out: PC3 2 hr IC50 (±SD)
Method: (§1) The cytotoxicity of the peptides on the prostate cancer derived cell lines DU145 and PC3 was tested as previously described (Morgan et al. 2014, ibid), using the MTT assay for metabolic activity. The cytotoxic drug Docetaxel (a standard chemotherapeutic drug) was included as a positive control.
(§2) Doses are in μM (micromoles), and the mean value from 3 experiments is given along with the standard deviation.

[2] = biological target: T1, HOXB4/PBX2 dimers (Homo sapiens, UniProt P40425); assay: Cell based ELISA assay for HOX/PBX binding; settings: MDA-MB-231 cells, 4 hours, compared to DMSO, SEM, read-out: % inhibition of HOXB4/PBX2 dimer formation
T1 construct: endogenous in cells; host or cells: MDA-MB-231
T1 sequence (P40425 1-430): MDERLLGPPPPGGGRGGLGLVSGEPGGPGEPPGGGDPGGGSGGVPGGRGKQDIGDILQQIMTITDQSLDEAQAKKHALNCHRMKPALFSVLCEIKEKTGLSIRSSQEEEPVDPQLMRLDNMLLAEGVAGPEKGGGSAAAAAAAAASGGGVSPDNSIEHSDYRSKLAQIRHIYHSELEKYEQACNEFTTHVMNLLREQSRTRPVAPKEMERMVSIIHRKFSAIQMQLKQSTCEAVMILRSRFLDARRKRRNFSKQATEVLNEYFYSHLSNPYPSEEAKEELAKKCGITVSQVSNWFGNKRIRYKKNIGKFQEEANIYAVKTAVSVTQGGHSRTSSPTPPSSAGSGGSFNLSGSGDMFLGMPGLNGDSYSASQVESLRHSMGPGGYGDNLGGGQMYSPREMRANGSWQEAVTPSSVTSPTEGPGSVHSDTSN
Method: In order to directly assess the ability of each peptide to disrupt HOX/PBX binding a cell-based assay system was developed that could allow the formation of HOX/PBX/DNA dimers. Cultured MDA-MB-231 cells were treated with 10 μM of each peptide for 4 hours and then used to generate a cell lysate using a standard preparation method as described below. HOXB4/PBX2 dimers were then measured using an ELISA-based system as detailed in the table below. The values from this assay are expressed as % inhibition of dimer formation compared to a negative control (DMSO).
1. Collect approximately 5.0×10^7 cells by low-speed centrifugation at RT for 5 min. Carefully remove culture medium.
2. Wash the cellular debris (pellet) with PBS at RT, and collect by low-speed centrifugation. Carefully remove supernatant (total protein).
3. Add 1.0 ml of pre-cold RIPA buffer (or other appropriate buffer) with freshly added (Protease Inhibitors) and/or (Phosphatase Inhibitors). Gently resuspend cells in RIPA buffer with a pipet and incubate on ice for 30 min.
4. Further disrupt and homogenize cells by passing through a 21-gauge needle, dounce homogenization or sonication, taking care not to raise the temperature of the lysate. (Optional: Add 10 μl of 10 mg/ml PMSF stock) Incubate 30 min on ice.
5. Transfer to microcentrifuge tube(s) and centrifuge at 10,000×g for 10 min at 4° C. […]

[3] = Body weight of PC3 tumour bearing mice; format: in vivo; settings: intratumoural
Method: PC3 cells were injected subcutaneously into female or male Balb-c nude mice aged 6 to 12 weeks (Harlan, UK). When the tumour size reached 100 mm^3 mice were injected intratumouraly with PBS, HXR9 or HTL001 at the intervals shown in FIG. 3. Mice were sacrificed when the tumour size reached 1000 mm^3 or at the end of the experiment (36 days). Tumours were then excised and immersed in 10% formalin for 24 h and processed for paraffin embedding. 5 μm slices of xenografts in paraffin blocks were made using microtome and different proteins detected by immunohistochemistry.

[4] = system: PC3 cells; settings: for PC3 2 hr IC50 change relative to HXR9: fold difference in IC50 relative to HXR9, 2 hr; for PC3 96 hr IC50 change relative to HXR9: fold difference in IC50 relative to HXR9, 96 hr
Method: as §1, §2

[5] = read-out: PC3 2 hr IC50 (±SD), PC3 cells, 2 hr, MTT, mean of 3 experiments ± SD
[6] = read-out: PC3 96 hr IC50 (±SD), PC3 cells, 96 hr, MTT, mean of 3 experiments ± SD

| Compound | PC3 2 hr IC50 change relative to HXR9 [4] [fold] | PC3 96 hr IC50 change relative to HXR9 [4] [fold] | IC50 [4, 5] [µM] | IC50 [4, 6] [µM] | also measured |
| --- | --- | --- | --- | --- | --- |
| CC(=O)O[C@@]12CO[C@@H]1C[C@H](O)[C@@]1(C)C(=O)[C@H](O)C3=C(C)[C@@H](OC(=O)[C@H](O)[C@@H](NC(=O)OC(C)(C)C)c4ccccc4)C[C@@](O)([C@@H](OC(=O)c4ccccc4)[C@H]21)C3(C)C [Docetaxel] | – | – | – | – | IC50 [1]: 4 µM |
| WYKWMKKAARRRRRRRRR [HTL001, WYKWMKKAARRRRRRRRR] | – | – | – | – | inhibition at 10 µM [2]: 28.2%; Maximum % weight loss [3]: 0% |
| WYKWMKKHHRRRRRRRRR [HXR9KS3] | 1.53 | 2.53 | 19 | 17 | – |
| WYKWMKKRRRRRRRRR [HXR9KS3noH] | 1.32 | 2.05 | 22 | 21 | – |
| WYPAMKKHHRRRRRRRRR [CXR9, WYPAMKKHHRRRRRRRRR] | – | – | – | – | IC50 ([4]; 2 h): > 80 µM; IC50 ([4]; 96 h): > 80 µM |
| WYPWMKKAARRRRRRRRR [HXR9AS7] | 0.64 | 1.08 | 45 | 40 | – |
| WYPWMKKHHRRRRRRRRR [HXR9, WYPWMKKHHRRRRRRRRR] | – | – | – | – | Maximum % weight loss [3]: 0% |
| WYPWMKKRRRRRRRRR [HXR9noH] | 0.48 | 0.80 | 60 | 54 | – |
